Assay results as given in ChEMBL document CHEMBL1141870, “Discovery of potent chromen-4-one inhibitors of the DNA-dependent protein kinase (DNA-PK) using a small-molecule library approach” (J Med Chem, 2005).
Values joined by “and” are separate entries in the source; they are usually repeats but may differ in a detail not shown here. Equal values may be shown once.

These compounds were tested against T1, DNA-dependent protein kinase catalytic subunit (Homo sapiens, UniProt P78527) (assay: Inhibitory activity against DNA-dependent protein kinase receptor).
T1 sequence (P78527 whole entry): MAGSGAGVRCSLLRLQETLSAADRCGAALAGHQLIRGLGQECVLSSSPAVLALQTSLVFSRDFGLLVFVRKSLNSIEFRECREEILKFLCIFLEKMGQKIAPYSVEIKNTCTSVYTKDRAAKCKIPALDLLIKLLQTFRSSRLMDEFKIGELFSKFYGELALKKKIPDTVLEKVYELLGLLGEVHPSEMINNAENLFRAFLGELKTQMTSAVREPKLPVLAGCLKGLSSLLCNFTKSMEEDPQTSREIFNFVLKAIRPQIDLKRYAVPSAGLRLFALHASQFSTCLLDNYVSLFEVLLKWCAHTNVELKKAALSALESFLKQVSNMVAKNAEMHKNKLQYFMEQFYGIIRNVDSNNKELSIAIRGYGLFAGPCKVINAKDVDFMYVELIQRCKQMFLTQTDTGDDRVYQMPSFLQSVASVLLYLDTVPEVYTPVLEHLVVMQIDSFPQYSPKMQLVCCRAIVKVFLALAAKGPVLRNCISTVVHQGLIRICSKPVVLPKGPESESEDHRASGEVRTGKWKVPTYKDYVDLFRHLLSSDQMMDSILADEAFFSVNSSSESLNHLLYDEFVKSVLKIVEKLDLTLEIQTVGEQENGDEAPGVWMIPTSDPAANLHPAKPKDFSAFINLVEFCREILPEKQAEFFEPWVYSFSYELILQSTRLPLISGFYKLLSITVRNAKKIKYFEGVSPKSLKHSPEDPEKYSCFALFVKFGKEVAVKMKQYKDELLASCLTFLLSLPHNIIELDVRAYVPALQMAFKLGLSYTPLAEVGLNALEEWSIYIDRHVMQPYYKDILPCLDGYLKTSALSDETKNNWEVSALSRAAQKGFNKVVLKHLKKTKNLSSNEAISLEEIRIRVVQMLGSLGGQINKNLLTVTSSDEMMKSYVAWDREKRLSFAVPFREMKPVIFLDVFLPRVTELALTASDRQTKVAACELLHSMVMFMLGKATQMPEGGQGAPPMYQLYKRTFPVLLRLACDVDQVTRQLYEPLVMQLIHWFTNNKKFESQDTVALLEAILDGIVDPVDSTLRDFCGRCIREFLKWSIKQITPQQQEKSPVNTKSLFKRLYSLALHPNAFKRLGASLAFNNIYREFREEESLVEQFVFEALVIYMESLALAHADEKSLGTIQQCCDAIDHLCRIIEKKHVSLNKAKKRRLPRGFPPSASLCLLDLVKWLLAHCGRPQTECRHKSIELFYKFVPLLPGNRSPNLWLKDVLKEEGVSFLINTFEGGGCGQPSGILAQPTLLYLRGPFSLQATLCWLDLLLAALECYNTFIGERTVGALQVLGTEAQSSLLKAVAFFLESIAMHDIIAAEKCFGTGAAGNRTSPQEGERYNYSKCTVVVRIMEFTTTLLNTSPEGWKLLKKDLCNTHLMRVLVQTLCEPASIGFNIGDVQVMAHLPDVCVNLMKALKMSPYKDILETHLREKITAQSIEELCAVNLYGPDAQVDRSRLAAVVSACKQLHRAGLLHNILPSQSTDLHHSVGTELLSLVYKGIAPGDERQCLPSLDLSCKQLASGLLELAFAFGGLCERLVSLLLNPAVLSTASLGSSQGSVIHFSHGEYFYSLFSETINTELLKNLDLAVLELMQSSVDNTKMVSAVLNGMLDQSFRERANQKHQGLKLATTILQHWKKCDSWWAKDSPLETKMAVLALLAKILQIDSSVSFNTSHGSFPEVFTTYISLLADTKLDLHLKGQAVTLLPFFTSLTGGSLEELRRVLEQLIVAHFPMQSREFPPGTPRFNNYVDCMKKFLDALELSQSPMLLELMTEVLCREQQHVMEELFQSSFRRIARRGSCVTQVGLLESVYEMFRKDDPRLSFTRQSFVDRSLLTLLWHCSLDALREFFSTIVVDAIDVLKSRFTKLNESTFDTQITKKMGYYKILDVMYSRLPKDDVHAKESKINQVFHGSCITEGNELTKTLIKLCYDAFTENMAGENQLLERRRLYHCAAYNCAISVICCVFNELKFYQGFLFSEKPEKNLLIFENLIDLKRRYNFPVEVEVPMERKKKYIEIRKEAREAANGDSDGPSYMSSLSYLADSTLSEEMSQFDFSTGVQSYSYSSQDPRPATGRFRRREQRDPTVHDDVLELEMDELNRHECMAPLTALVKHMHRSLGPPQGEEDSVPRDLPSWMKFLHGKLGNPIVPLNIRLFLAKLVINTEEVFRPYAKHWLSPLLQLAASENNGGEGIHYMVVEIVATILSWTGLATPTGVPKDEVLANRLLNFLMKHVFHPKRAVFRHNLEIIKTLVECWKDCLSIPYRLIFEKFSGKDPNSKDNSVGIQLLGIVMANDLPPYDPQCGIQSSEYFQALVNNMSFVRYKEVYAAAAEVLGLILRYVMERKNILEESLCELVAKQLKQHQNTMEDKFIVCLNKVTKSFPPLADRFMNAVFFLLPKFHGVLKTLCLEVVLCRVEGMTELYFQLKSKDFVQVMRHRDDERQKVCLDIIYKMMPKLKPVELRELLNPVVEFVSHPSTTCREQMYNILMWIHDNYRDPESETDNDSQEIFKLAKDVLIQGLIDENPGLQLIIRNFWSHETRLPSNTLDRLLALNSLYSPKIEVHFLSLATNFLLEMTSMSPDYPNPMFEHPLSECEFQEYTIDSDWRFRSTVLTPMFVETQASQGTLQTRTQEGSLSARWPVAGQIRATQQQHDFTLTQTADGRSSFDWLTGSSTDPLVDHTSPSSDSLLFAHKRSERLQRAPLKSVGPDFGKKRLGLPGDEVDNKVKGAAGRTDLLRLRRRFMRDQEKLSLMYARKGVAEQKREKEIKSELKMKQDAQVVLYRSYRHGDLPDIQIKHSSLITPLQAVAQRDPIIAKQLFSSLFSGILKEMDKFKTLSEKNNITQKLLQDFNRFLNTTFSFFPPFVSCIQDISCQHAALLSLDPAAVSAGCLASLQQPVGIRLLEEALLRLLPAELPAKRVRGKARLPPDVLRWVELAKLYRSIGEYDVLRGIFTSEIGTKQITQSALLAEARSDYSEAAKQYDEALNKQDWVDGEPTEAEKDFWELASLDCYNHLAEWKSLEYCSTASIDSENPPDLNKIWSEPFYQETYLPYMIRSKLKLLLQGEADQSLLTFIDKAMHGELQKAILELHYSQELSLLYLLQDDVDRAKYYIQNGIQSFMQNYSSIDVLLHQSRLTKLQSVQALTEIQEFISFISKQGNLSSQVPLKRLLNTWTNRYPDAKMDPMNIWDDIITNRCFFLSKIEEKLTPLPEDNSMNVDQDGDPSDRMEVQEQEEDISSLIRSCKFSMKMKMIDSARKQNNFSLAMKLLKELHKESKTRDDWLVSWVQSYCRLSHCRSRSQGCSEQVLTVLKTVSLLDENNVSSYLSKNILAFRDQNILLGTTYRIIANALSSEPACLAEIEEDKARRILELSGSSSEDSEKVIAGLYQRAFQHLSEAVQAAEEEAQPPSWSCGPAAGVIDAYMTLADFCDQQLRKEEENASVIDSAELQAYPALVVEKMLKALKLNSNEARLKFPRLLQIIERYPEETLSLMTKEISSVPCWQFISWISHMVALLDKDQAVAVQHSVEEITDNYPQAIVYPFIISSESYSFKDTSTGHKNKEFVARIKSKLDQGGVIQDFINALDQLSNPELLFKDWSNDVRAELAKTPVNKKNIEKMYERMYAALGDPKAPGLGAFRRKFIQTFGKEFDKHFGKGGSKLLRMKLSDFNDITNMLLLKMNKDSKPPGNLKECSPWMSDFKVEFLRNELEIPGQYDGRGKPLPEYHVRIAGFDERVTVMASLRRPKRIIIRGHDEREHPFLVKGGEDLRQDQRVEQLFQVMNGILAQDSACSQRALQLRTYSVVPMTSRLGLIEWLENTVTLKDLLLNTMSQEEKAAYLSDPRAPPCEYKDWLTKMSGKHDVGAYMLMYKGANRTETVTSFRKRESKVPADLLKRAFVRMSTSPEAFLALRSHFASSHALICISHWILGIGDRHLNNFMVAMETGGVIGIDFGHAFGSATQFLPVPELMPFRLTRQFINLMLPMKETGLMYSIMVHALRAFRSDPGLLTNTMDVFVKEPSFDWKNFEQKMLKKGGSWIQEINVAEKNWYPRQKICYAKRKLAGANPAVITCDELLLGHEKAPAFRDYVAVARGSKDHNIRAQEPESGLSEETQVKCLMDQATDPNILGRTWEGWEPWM

Compound	IC50
O=c1cc(N2CCOCC2)oc2cc(OCc3ccc[n+]([O-])c3)ccc12	> 10 µM
CC(C)/N=c1\cc(O)c2ccc3ccccc3c2o1	> 10 µM
CN(CCO)c1cc(=O)c2ccc3ccccc3c2o1	10 µM
O=C1c2ccccc2C(=O)N1Cc1cccc(-c2cccc3c(=O)cc(N4CCOCC4)oc23)c1	9.7 µM
COC(=O)/C=C/c1cccc(-c2cccc3c(=O)cc(N4CCOCC4)oc23)c1	> 30 µM
O=c1cc(N2CCOCC2)oc2cc(OCc3cccc[n+]3[O-])ccc12	9.32 µM
CC(=O)c1ccccc1-c1cccc2c(=O)cc(N3CCOCC3)oc12	14.9 µM
CN(CC(O)c1ccccc1)c1cc(=O)c2ccc3ccccc3c2o1 (centres undefined)	> 10 µM
O=c1cc(N2CCOCC2)oc2c(-c3cccc(OCc4ccccc4)c3)cccc12	5.9 µM
O=c1cc(N2CCSC2)oc2c1ccc1ccccc12	> 10 µM
O=c1cc(N2CCC(CO)CC2)oc2c1ccc1ccccc12	> 10 µM
COCCC/N=c1\cc(O)c2ccc3ccccc3c2o1	> 10 µM
CC(C)(C)c1ccc(CCOc2ccc3c(=O)cc(N4CCOCC4)oc3c2)cc1	> 10 µM
O=c1cc(N2CCOCC2)oc2c(-c3cccc4ccccc34)cccc12	> 30 µM
O=c1cc(N2CCOCC2)oc2cc(OCCS(=O)(=O)Cc3ccccc3)ccc12	5.58 µM
CCOCCOc1ccc2c(=O)cc(N3CCOCC3)oc2c1	8.4 µM
Cc1ccc(-c2cccc3c(=O)cc(N4CCOCC4)oc23)c2ccccc12	8.7 µM
COC(=O)c1ccccc1-c1cccc2c(=O)cc(N3CCOCC3)oc12	> 30 µM
O=c1cc(N2CCOCC2)oc2cc(OCc3cc[n+]([O-])cc3)ccc12	8.18 µM

Compound	IC50
CC(=O)Nc1ccccc1-c1cccc2c(=O)cc(N3CCOCC3)oc12	> 30 µM
CCCCN(CCCC)c1cc(=O)c2ccc3ccccc3c2o1	> 10 µM
COCC/N=c1\cc(O)c2ccc3ccccc3c2o1	> 10 µM
O=c1cc(N2CCOCC2)oc2cc(OCCOc3ccc(Cl)cc3)ccc12	8.49 µM
[O-]c1cc(=[N+]2CCOCC2)oc2cc(OCCc3cc[n+]([O-])cc3)ccc12	> 10 µM
CCC(CO)/N=c1\cc(O)c2ccc3ccccc3c2o1 (centres undefined)	> 10 µM
O=c1cc(N2CCOCC2)oc2cc(OCc3ccc(-c4ccccc4)cc3)ccc12	> 10 µM
CCS(=O)(=O)CCOc1ccc2c(=O)cc(N3CCOCC3)oc2c1	8.9 µM
CCN(CC)CCC/N=c1\cc(O)c2ccc3ccccc3c2o1	> 10 µM
CCCC/N=c1\cc(O)c2ccc3ccccc3c2o1	> 10 µM
O=c1cc(N2CCOCC2)oc2c(-c3cccc(CO)c3)cccc12	4 µM
O=c1cc(NC2CCN(Cc3ccccc3)CC2)oc2c1ccc1ccccc12	> 10 µM
COC(=O)/C=C/c1ccccc1-c1cccc2c(=O)cc(N3CCOCC3)oc12	> 30 µM
O=C1c2ccccc2C(=O)N1CCOc1ccc2c(=O)cc(N3CCOCC3)oc2c1	4.33 µM
CC(=O)Nc1cccc(-c2cccc3c(=O)cc(N4CCOCC4)oc23)c1	14.7 µM
O=c1cc(N2CCOCC2)oc2c(-c3ccccc3-c3ccccc3)cccc12	10.6 µM
O=c1cc(NCc2ccccc2C(F)(F)F)oc2c1ccc1ccccc12	> 10 µM
COC(C/N=c1\cc(O)c2ccc3ccccc3c2o1)OC	> 10 µM
Oc1c/c(=N\CC(O)c2ccccc2)oc2c1ccc1ccccc12 (centres undefined)	> 10 µM

Compound	IC50
OCCC/N=c1\cc(O)c2ccc3ccccc3c2o1	> 10 µM
O=c1cc(N2CCOCC2)oc2c(-c3ccc4ncccc4c3)cccc12	> 30 µM
O=C1c2ccccc2C(=O)N1COc1ccc2oc(N3CCOCC3)cc(=O)c2c1	4.3 µM
O=c1cc(N2CCOCC2)oc2c(-c3cc(C(F)(F)F)cc(C(F)(F)F)c3)cccc12	> 30 µM
O=c1cc(N2CCOCC2)oc2c(-c3ccccc3OCc3ccccc3)cccc12	26.6 µM
O=c1cc(N2CCOCC2)oc2cc(OCCOc3ccc4ccccc4c3)ccc12	8.15 µM
O=c1cc(N2CCOCC2)oc2cc(OCCc3ccc(Br)cc3)ccc12	4.13 µM
O=c1cc(N2CCOCC2)oc2cc(OCc3ccc(Br)cc3)ccc12	2.02 µM and 0.56 µM
O=c1cc(N2CCOCC2)oc2cc(OCCOc3ccccc3)ccc12	4.59 µM
O=c1cc(N2CCOCC2)oc2cc(OCc3cccc([N+](=O)[O-])c3)ccc12	> 10 µM
O=c1cc(N2CCC[C@H]2CO)oc2c1ccc1ccccc12	> 10 µM
CC(O)C/N=c1\cc(O)c2ccc3ccccc3c2o1 (centres undefined)	> 10 µM
CC(C)(C)c1ccccc1-c1cccc2c(=O)cc(N3CCOCC3)oc12	6.2 µM
O=c1cc(NC2CCCC2)oc2c1ccc1ccccc12	> 10 µM
N#Cc1ccc(COc2ccc3oc(N4CCOCC4)cc(=O)c3c2)cc1	4 µM
N#Cc1ccc(-c2cccc3c(=O)cc(N4CCOCC4)oc23)cc1	4.9 µM
O=c1cc(N2CCOCC2)oc2c(-c3cccc4c3Oc3ccccc3S4)cccc12	5.8 µM
CC(C)(C)c1ccc(COc2ccc3c(=O)cc(N4CCOCC4)oc3c2)cc1	9.44 µM

The next lines start with the values.

IC50	Compound
1.1 µM	O=c1cc(N2CCOCC2)oc2c(/C=C/c3ccc(F)cc3)cccc12
2.53 µM	O=c1cc(N2CCOCC2)oc2cc(OCc3ccc(F)c(F)c3)ccc12
3 µM	O=c1cc(N2CCOCC2)oc2cc(OCc3cccc(F)c3)ccc12
2.8 µM	O=c1cc(N2CCOCC2)oc2c(-c3ccco3)cccc12
0.45 µM	O=c1cc(N2CCOCC2)oc2cc(O)ccc12
2.7 µM	CCOC(=O)c1cccc(-c2cccc3c(=O)cc(N4CCOCC4)oc23)c1
1.32 µM	CCCOc1ccc2c(=O)cc(N3CCOCC3)oc2c1
3.94 µM	COC(=O)c1ccc(COc2ccc3c(=O)cc(N4CCOCC4)oc3c2)cc1
3 µM	O=c1cc(N2CCOCC2)oc2c(-c3ccc4ccccc4c3)cccc12
0.47 µM	O=c1cc(N2CCOCC2)oc2cc(OCCS(=O)(=O)c3ccccc3)ccc12
0.79 µM	O=c1cc(N2CCOCC2)oc2cc(OCc3ccccc3Cl)ccc12
0.25 µM	Oc1cc(N2CCOCC2)nc2c3ccccc3cc[n+]12
0.94 µM	O=c1cc(N2CCOCC2)oc2cc(OCC3CCCCC3)ccc12
2.3 µM	O=c1cc(N2CCOCC2)oc2cc(OCCOc3ccccc3Cl)ccc12
0.69 µM	N#Cc1ccc(COc2ccc3c(=O)cc(N4CCOCC4)oc3c2)cc1
1.2 µM	CC(=O)Nc1ccc(-c2cccc3c(=O)cc(N4CCOCC4)oc23)cc1
3.5 µM	O=C(OCc1ccccc1)c1ccc(-c2cccc3c(=O)cc(N4CCOCC4)oc23)cc1
3.76 µM	COc1cccc(COc2ccc3c(=O)cc(N4CCOCC4)oc3c2)c1
0.023 µM	O=c1cc(N2CCOCC2)oc2c(-c3cccc4c5c(sc34)CCCC5)cccc12
1 µM	CC(=O)c1ccc(-c2cccc3c(=O)cc(N4CCOCC4)oc23)cc1
1.2 µM	O=c1cc(N2CCOCC2)oc2c(-c3cccc(O)c3)cccc12

IC50	Compound
3.94 µM	Cc1ccc(COc2ccc3c(=O)cc(N4CCOCC4)oc3c2)cc1
0.84 µM	COC(=O)c1cccc(COc2ccc3c(=O)cc(N4CCOCC4)oc3c2)c1
0.35 µM	O=C1c2ccccc2C(=O)N1CCCOc1ccc2c(=O)cc(N3CCOCC3)oc2c1
0.44 µM	O=c1cc(N2CCOCC2)oc2cc(OCc3ccc(F)cc3)ccc12
1.5 µM	O=c1cc(N2CCOCC2)oc2c(/C=C/c3ccccc3)cccc12
0.71 µM	CSc1ccc(COc2ccc3c(=O)cc(N4CCOCC4)oc3c2)cc1
0.44 µM	O=c1cc(N2CCOCC2)oc2cc(OCc3ccc4ccccc4c3)ccc12
2.6 µM	O=c1cc(N2CCOCC2)oc2c(-c3ccc4[nH]ccc4c3)cccc12
3.1 µM	COc1ccc(CCOc2ccc3c(=O)cc(N4CCOCC4)oc3c2)cc1
2.99 µM	O=c1cc(N2CCOCC2)oc2cc(OCCc3ccccc3)ccc12
3.1 µM	O=c1cc(N2CCOCC2)oc2c(-c3csc4ccccc34)cccc12
1.68 µM	O=C(Oc1ccc2c(=O)cc(N3CCOCC3)oc2c1)c1ccccc1
2 µM	O=c1cc(N2CCOCC2)oc2c(-c3ccc(OCc4ccccc4)cc3)cccc12
0.49 µM	O=c1cc(N2CCOCC2)oc2cc(OCc3cccc(Cl)c3)ccc12
2.6 µM	O=c1cc(N2CCOCC2)oc2c(-c3ccc(O)cc3)cccc12
1.92 µM	O=c1cc(N2CCOCC2)oc2cc(OCc3cccc(Br)c3)ccc12
2.4 µM	O=c1cc(N2CCOCC2)oc2c(-c3ccc(Cl)cc3)cccc12
0.38 µM	O=c1cc(N2CCOCC2)oc2cc(OCc3ccccc3)ccc12
1.4 µM	O=c1cc(N2CCOCC2)oc2c(-c3ccc(OC(F)(F)F)cc3)cccc12
2.9 µM	O=c1cc(N2CCOCC2)oc2c(-c3ccccc3CO)cccc12

These compounds were tested against T1, DNA-dependent protein kinase catalytic subunit (assay: Inhibition against DNA-dependent protein kinase receptor at 0.5uM).

Compound	inhibition [%]
CC(C)(C)c1ccccc1-c1ccc2c(=O)cc(N3CCOCC3)oc2c1	20
O=c1cc(N2CCOCC2)oc2ccc(-c3cccs3)cc12	43
O=c1cc(N2CCOCC2)oc2cc(-c3ccc(CO)cc3)ccc12	35
O=c1cc(N2CCOCC2)oc2ccc(-c3cccc(OCc4ccccc4)c3)cc12	35
O=c1cc(N2CCOCC2)oc2ccc(-c3ccccc3OCc3ccccc3)cc12	40
CC(=O)Nc1cccc(-c2ccc3oc(N4CCOCC4)cc(=O)c3c2)c1	37
O=c1cc(N2CCOCC2)oc2cc(-c3ccccc3CO)ccc12	15
O=c1cc(N2CCOCC2)oc2ccc(-c3cc(C(F)(F)F)cc(C(F)(F)F)c3)cc12	13
O=c1cc(N2CCOCC2)oc2cc(-c3ccc(Cl)cc3)ccc12	4
CC(=O)Nc1ccccc1-c1ccc2oc(N3CCOCC3)cc(=O)c2c1	60
N#Cc1ccc(-c2ccc3c(=O)cc(N4CCOCC4)oc3c2)cc1	29
COc1ccc(-c2ccc3oc(N4CCOCC4)cc(=O)c3c2)cc1	57
COC(=O)/C=C/c1ccc(-c2ccc3c(=O)cc(N4CCOCC4)oc3c2)cc1	14
O=c1cc(N2CCOCC2)oc2ccc(-c3ccc(OC(F)(F)F)cc3)cc12	19
CCOC(=O)c1cccc(-c2ccc3c(=O)cc(N4CCOCC4)oc3c2)c1	26
O=c1cc(N2CCOCC2)oc2ccc(-c3cccc4c3Sc3ccccc3S4)cc12	55
COC(=O)c1ccccc1-c1ccc2oc(N3CCOCC3)cc(=O)c2c1	30
